Experiments:
DU-145 = assay: Antiproliferative activity against human DU-145 cells assessed as reduction in cell proliferation incubated for 4 days by crystal violet based assay; assay type: functional; settings: DU-145, 96 h
HeLa S3 = assay: Antiproliferative activity against human HeLa S3 cells assessed as reduction in cell proliferation incubated for 4 days by crystal violet based assay; assay type: functional; settings: HeLa S3, 96 h
MCF7 = assay: Antiproliferative activity against human MCF7 cells assessed as reduction in cell proliferation incubated for 4 days by crystal violet based assay; assay type: functional; settings: MCF7, 96 h
NCI-H460 = assay: Antiproliferative activity against human NCI-H460 cells assessed as reduction in cell proliferation incubated for 4 days by crystal violet based assay; assay type: functional; settings: NCI-H460, 96 h
Caco-2 = assay: Antiproliferative activity against human Caco-2 cells assessed as reduction in cell proliferation incubated for 4 days by crystal violet based assay; assay type: functional; settings: Caco-2, 96 h
[1] = biological target: Serine/threonine-protein kinase PLK1 (Homo sapiens, UniProt P53350); assay: Inhibition of full-length His-tagged human PLK1 expressed in baculovirus using biotinylated casein as substrate in presence of [gamma-33P]-ATP by scintillation counter analysis
B16-F10 = assay: Antiproliferative activity against mouse B16-F10 cells assessed as reduction in cell proliferation incubated for 4 days by crystal violet based assay; assay type: functional; settings: B16-F10, 96 h
[2] = Inhibition of beta-lactamase P99 (unknown origin) using cephalosporin nitrocefin as substrate preincubated for 10 mins followed by substrate addition by spectrophotometric analysis; set-up: species or system Bacteria
[3] = Inhibition of COX-2 in LPS stimulated mouse J774.A1 cells using arachidonic acid as substrate preincubated for 60 mins followed by substrate addition and measured after 30 mins by EIA analysis; assay type: cell-based
[4] = biological target: Dual specificity tyrosine-phosphorylation-regulated kinase 1A (Homo sapiens, UniProt Q13627); assay: Inhibition of recombinant human GST-tagged DYRK1A expressed in Escherichia coli using Woodtide as substrate in presence of [gamma-33P] ATP incubated for 30 mins by scintillation counter analysis
[5] = biological target: T1, Peroxisome proliferator-activated receptor alpha (Homo sapiens, UniProt Q07869); assay: Agonist activity against PPAR-alpha (unknown origin)
T1 sequence (Q07869 whole entry): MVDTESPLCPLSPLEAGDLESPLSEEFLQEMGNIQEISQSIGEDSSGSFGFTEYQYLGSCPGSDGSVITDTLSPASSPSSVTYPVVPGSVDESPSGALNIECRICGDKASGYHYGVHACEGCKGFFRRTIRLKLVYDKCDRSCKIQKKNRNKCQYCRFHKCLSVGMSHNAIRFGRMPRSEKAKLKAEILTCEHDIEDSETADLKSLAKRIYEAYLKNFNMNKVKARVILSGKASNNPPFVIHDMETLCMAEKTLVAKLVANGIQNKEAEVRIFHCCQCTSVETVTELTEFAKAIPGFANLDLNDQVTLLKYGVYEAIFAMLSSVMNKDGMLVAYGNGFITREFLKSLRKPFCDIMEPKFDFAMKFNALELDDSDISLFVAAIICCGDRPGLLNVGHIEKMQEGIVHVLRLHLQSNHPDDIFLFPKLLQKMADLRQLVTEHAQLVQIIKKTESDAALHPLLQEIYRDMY

Lethal factor = biological target: T2, Lethal factor (Bacillus anthracis, UniProt P15917); assay: Inhibition of Bacillus anthracis anthrax lethal factor using MAPKKide as substrate incubated for 30 mins by fluorescence plate reader analysis
T2 sequence (P15917 whole entry): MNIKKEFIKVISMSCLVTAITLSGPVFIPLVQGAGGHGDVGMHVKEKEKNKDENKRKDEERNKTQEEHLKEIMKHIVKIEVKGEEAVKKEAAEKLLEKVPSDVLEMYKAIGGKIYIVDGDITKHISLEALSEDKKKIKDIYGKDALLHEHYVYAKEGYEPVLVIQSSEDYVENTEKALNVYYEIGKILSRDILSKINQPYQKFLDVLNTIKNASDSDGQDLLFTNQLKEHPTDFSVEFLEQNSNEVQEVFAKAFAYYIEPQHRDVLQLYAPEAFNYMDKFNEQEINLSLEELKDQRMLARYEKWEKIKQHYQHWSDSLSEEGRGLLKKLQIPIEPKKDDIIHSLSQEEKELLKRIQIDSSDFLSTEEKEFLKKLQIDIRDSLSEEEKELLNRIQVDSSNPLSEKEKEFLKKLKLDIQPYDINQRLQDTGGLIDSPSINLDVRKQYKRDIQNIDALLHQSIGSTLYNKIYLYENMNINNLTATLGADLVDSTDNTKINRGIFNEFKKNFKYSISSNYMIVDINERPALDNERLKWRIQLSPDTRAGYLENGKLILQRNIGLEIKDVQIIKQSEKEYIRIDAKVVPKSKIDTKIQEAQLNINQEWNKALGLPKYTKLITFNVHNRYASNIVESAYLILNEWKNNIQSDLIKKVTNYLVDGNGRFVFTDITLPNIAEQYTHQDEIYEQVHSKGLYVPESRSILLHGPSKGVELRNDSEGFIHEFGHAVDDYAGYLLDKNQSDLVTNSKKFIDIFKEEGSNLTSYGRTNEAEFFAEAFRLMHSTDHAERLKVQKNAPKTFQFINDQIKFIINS

[6] = biological target: RNA-directed RNA polymerase (Hepacivirus hominis, UniProt O39930); assay: Inhibition of Hepatitis C virus NS5B polymerase
Plasmodium falciparum = assay: Antimalarial activity against chloroquine sensitive Plasmodium falciparum FCR-3 infected in mouse FM3A cells ssessed as reduction in parasite growth; assay type: functional, organism-based; settings: FCR-3, FM3A

RNA-directed RNA polymerase, sequence (O39930 whole entry): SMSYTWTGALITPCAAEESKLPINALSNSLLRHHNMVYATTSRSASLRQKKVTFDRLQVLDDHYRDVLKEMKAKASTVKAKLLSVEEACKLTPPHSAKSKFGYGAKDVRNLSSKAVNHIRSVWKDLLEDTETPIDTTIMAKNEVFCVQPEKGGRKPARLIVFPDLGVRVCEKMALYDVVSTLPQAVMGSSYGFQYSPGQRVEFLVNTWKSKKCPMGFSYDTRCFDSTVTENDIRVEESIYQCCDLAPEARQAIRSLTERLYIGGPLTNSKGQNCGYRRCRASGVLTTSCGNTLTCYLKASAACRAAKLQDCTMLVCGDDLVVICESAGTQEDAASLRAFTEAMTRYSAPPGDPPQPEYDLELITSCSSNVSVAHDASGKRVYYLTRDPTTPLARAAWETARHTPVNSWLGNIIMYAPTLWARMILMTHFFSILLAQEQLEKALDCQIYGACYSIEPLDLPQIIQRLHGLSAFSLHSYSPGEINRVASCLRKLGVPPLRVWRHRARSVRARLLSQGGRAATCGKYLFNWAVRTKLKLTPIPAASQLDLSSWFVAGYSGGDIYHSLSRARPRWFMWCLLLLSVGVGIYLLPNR
Serine/threonine-protein kinase PLK1, sequence (P53350 whole entry): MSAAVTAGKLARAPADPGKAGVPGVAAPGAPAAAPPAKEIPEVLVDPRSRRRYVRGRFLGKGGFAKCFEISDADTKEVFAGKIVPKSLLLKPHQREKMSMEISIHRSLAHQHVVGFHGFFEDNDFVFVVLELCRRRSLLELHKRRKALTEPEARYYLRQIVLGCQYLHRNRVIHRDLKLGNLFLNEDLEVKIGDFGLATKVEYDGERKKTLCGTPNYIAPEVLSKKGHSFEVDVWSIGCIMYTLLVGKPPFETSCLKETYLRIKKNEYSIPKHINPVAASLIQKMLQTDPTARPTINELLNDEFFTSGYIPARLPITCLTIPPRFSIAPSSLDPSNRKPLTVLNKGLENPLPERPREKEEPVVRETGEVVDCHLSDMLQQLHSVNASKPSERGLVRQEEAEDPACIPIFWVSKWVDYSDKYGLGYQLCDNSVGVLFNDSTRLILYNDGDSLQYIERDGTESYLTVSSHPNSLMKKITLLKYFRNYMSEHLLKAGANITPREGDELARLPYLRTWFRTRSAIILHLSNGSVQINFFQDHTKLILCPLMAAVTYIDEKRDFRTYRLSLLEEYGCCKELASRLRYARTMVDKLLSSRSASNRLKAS

## CCn1c(=O)/c(=C/Nc2cccc(CCN3CCCC3)c2)s/c1=C(\C#N)C(=O)NCC(F)(F)F
DU-145
  IC50: 0.2 µM
HeLa S3
  IC50: 0.2 µM
MCF7
  IC50: 0.2 µM
NCI-H460
  IC50: 0.2 µM
Caco-2
  IC50: 0.2 µM
[1]
  IC50: 0.019 µM
B16-F10
  IC50: 0.2 µM

## O=C1NC(=S)S/C1=C1\C(=O)Nc2ccccc21
[2]
  IC50: 2600 µM

## CONC1=NC(=O)/C(=C/c2cc(C(C)(C)C)c(O)c(C(C)(C)C)c2)S1
[3]
  IC50: 0.17 µM

## COc1ccc(/C=C2\SC(NCCCN3CCN(CCCNC4=NC(=O)/C(=C/c5ccc(OC)cc5)S4)CC3)=NC2=O)cc1
[4]
  IC50: 0.04 µM

## CN(C)c1ccc(/C=C/C=C2\S/C(=N\c3ccccc3)N(Cc3ccc(C(=O)O)cc3)C2=O)cc1
[5]
  EC50: 0.044 µM

## O=C(O)CN1C(=O)/C(=C/c2ccco2)SC1=S
Lethal factor
  IC50: 10 µM

## Cc1ccc(S(=O)(=O)NC2=NC(=O)/C(=C/c3ccc(C)o3)S2)cc1
[6]
  IC50: 2 µM

## CCc1ccc(/C=C2/SC(NC(C(=O)O)c3ccc(F)cc3)=NC2=O)o1 (stereo not given)
[6]
  IC50: 3 µM

## C=CCn1c(=O)/c(=C2\Sc3ccccc3N2C)s/c1=C\c1cccc[n+]1C
Plasmodium falciparum
  EC50: 0.012 µM
